Tested on: ddc-GAL4;G2019S-2 flies
Test: Climbing assay (negative geotaxis) of LRRK2-G2019S transgenic flies treated with L-DOPA
Assay type: in vivo, Drosophila melanogaster
Settings: 5 weeks of age, 1 mM L-DOPA for 10 days, P<0.05 vs untreated (FIG. 2E)
Source text: We determined locomotor ability using a climbing assay (negative geotaxis assay) as described previously (23). Cohorts of 60 flies from each genotype were subjected to the assay weekly from 1 week to the time of death. The tested flies were age-matched, randomly selected, anesthetized, and placed in a vertical plastic column (length, 25 cm; diameter, 1.5 cm). After a 30-min recovery from CO2 exposure, flies were gently tapped to the bottom of the column. We counted and calculated the percentage of flies that could climb to or above the median line of the cylinder in 10 seconds. Each week, the assay was repeated three times.

SMILES: N[C@@H](Cc1ccc(O)c(O)c1)C(=O)O [L-DOPA]
- locomotor activity (climbing assay): significantly improved

Reference: US20100175140A1, “Leucine-rich repeat kinase (LRRK2) drosophila model for parkinson's disease: wildtype1 (WT1) and G2019S mutant flies” (The Johns Hopkins University, priority 2008, published 2010)
